ChEMBL document CHEMBL1201862, “PubChem BioAssay data set” (2004)
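Exposure lasted 48 hours, with cells grown in 96-well plates and compounds tested at five concentrations. The concentration for 50% growth inhibition is given as GI50.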 Active and inactive are the calls of the source. Rule as the data show it: active = GI50 up to about 1.1 µM and inactive = higher.

Assays:
Test in all cases: growth of human tumour cells (NCI), 48 h
BT-549 = test system: BT-549
Hs-578T = test system: Hs-578T
M19-MEL = test system: M19-MEL
LXFL 529 = test system: LXFL 529
HOP-18 = test system: HOP-18
KM-20L2 = test system: KM-20L2
RXF 631 = test system: RXF 631
DMS-273 = test system: DMS-273
XF498 = test system: XF498

## COc1cc(/C=N/c2nc3cc4sc(/N=C/c5cc(OC)c(OC)c(OC)c5)nc4cc3s2)cc(OC)c1OC
BT-549
  GI50: > 100 µM (inactive)
Hs-578T
  GI50: > 100 µM (inactive)

## CCCCC1CC(c2cccc([N+](=O)[O-])c2)=NO1 (stereo not given)
M19-MEL
  GI50: 74.6 µM (inactive)
LXFL 529
  GI50: 56.5 µM (inactive)
HOP-18
  GI50: 80.4 µM (inactive)
KM-20L2
  GI50: > 100 µM (inactive)
RXF 631
  GI50: 80.7 µM (inactive)
DMS-273
  GI50: > 100 µM (inactive)

## COc1cc(OC2OC(COC(=O)c3cc(O)c(O)c(O)c3)C(O)C(O)C2O)ccc1O (stereo not given)
BT-549
  GI50: 47.3 µM (inactive)
Hs-578T
  GI50: > 100 µM (inactive)

## CC1=NN(c2nc(N)nc(CN3CCOCC3)n2)C(C)(C)C1
BT-549
  GI50: > 100 µM (inactive)
Hs-578T
  GI50: > 100 µM (inactive)

## C/C=C(/C)C(=O)O[C@H]1C(C)=C[C@]23C(=O)[C@@H](C=C(COC(C)=O)[C@@H](O)[C@]12O)[C@H]1[C@@H](C[C@H]3C)[C@@]1(C)OC(=O)/C(C)=C\C
BT-549
  GI50: 2.38 µM (inactive)
Hs-578T
  GI50: 0.0792 µM (active)

## CNC(=S)NN=C1NCCCCN1
BT-549
  GI50: > 100 µM (inactive)
Hs-578T
  GI50: 83.9 µM (inactive)

## CN(/N=C/c1ccnc2ccccc12)c1ccc([N+](=O)[O-])cc1[N+](=O)[O-]
M19-MEL
  GI50: > 100 µM (inactive)
LXFL 529
  GI50: 42.6 µM (inactive)
HOP-18
  GI50: > 100 µM (inactive)
KM-20L2
  GI50: > 100 µM (inactive)
XF498
  GI50: > 100 µM (inactive)
DMS-273
  GI50: > 100 µM (inactive)

## Cc1cc(C)c2c(c1)C1=NCCN1C2(O)c1ccc(Cl)cc1 (stereo not given)
BT-549
  GI50: 13.2 µM (inactive)
Hs-578T
  GI50: 16.4 µM (inactive)

## CCCCCCCc1cc(OC(=O)c2c(C)cc(OC)cc2O)cc(O)c1C(=O)O
M19-MEL
  GI50: 23.6 µM (inactive)
LXFL 529
  GI50: 18.2 µM (inactive)
KM-20L2
  GI50: 21.2 µM (inactive)
RXF 631
  GI50: 25.5 µM (inactive)
DMS-273
  GI50: 28.8 µM (inactive)

## CC(C)(C)c1cc(C(C)(C)C)c(SS(=O)(=O)O)c(O)c1O
BT-549
  GI50: > 100 µM (inactive)

## NNC(=O)c1ccccc1Nc1ccccc1C(=O)NN
BT-549
  GI50: > 100 µM (inactive)
Hs-578T
  GI50: 92.9 µM (inactive)

## O=C(c1ccccc1)c1ccc2[nH]c(-c3c(Cl)c(Cl)c(Cl)c(Cl)c3-c3nnc(-c4ccccc4)o3)nc2c1
BT-549
  GI50: 46 µM (inactive)
Hs-578T
  GI50: 27.4 µM (inactive)

## CCN(CC)CC1CN=C(N)O1 (stereo not given)
BT-549
  GI50: > 100 µM (inactive)

## Ic1cccc(/C=C/CN2CCN(CCOC(c3ccccc3)c3ccccc3)CC2)c1
BT-549
  GI50: 16.8 µM (inactive)
Hs-578T
  GI50: 28 µM (inactive)

## OC1C2[C@@H](O)CCCN2C[C@@H](O)[C@H]1O (stereo not given in full)
BT-549
  GI50: > 100 µM (inactive)
Hs-578T
  GI50: > 100 µM (inactive)

## CC/C(=C/OC)P1(=O)OC(C)(C)CN1C(C)(C)C (stereo not given)
BT-549
  GI50: > 100 µM (inactive)

## CC(=O)/C=C/c1ccc(C)cc1
M19-MEL
  GI50: > 100 µM (inactive)
LXFL 529
  GI50: > 100 µM (inactive)
HOP-18
  GI50: > 100 µM (inactive)
KM-20L2
  GI50: > 100 µM (inactive)
DMS-273
  GI50: > 100 µM (inactive)

## Cc1cc(NS(=O)(=O)c2ccc(NC(=O)c3ccc(Cl)c4c(Nc5ccc(S(=O)(=O)Nc6cc(C)on6)cc5)c5ccccc5nc34)cc2)no1
M19-MEL
  GI50: 22.9 µM (inactive)
LXFL 529
  GI50: 21.6 µM (inactive)
HOP-18
  GI50: 15.8 µM (inactive)
KM-20L2
  GI50: 21.5 µM (inactive)
XF498
  GI50: 31.8 µM (inactive)
DMS-273
  GI50: 22.5 µM (inactive)

## CC1(C)CC(=O)c2c(nc3ccc4ccccc4c3c2-c2ccc(NC(=O)CCCCC(=O)Nc3ccc(-c4c5c(nc6ccc7ccccc7c46)CC(C)(C)CC5=O)cc3)cc2)C1
BT-549
  GI50: > 100 µM (inactive)
Hs-578T
  GI50: > 100 µM (inactive)

## Cc1ccc(Nc2nc(C)c(C(=O)CC(=O)C(=O)Nc3ccc(Cl)cc3)s2)cc1
Hs-578T
  GI50: > 100 µM (inactive)

## O=C(C(Cl)=C(N1CCCCC1)N1CCCCC1)C(Cl)Cl
BT-549
  GI50: > 100 µM (inactive)
Hs-578T
  GI50: > 100 µM (inactive)

## COC(=O)[C@]1(c2cc3ccccc3n2S(=O)(=O)c2ccccc2)CC2CCC1NC2 (stereo not given in full)
BT-549
  GI50: 14.5 µM (inactive)

## C[C@@]1(c2ccccc2)O[C@@H]2C[C@H]3[C@@H]4CCC5=CC(=O)C=C[C@]5(C)[C@@]4(F)[C@@H](O)C[C@]3(C)[C@]2(C(=O)CO)O1 [AMCINAFIDE]
BT-549
  GI50: 18.2 µM (inactive)
Hs-578T
  GI50: 18.7 µM (inactive)

## C1OCC2S[C@@H]3COCO[C@@H]3C2O1 (stereo not given in full)
M19-MEL
  GI50: > 100 µM (inactive)
LXFL 529
  GI50: > 100 µM (inactive)
KM-20L2
  GI50: > 100 µM (inactive)
XF498
  GI50: > 100 µM (inactive)
DMS-273
  GI50: > 100 µM (inactive)

## O=C(O)CSc1nnc(-c2ccccc2)[nH]1
M19-MEL
  GI50: > 100 µM (inactive)
LXFL 529
  GI50: > 100 µM (inactive)
HOP-18
  GI50: > 100 µM (inactive)
KM-20L2
  GI50: > 100 µM (inactive)
XF498
  GI50: > 100 µM (inactive)
DMS-273
  GI50: > 100 µM (inactive)

## O=C1O[C@H](C(Cl)(Cl)Cl)N2CCCC12 (stereo not given in full)
M19-MEL
  GI50: > 100 µM (inactive)
LXFL 529
  GI50: > 100 µM (inactive)
HOP-18
  GI50: 18.5 µM (inactive)
KM-20L2
  GI50: > 100 µM (inactive)
XF498
  GI50: > 100 µM (inactive)
DMS-273
  GI50: > 100 µM (inactive)

## NC1=CN(CCCO)C2=N/C(=C\c3ccco3)C(=O)N12
BT-549
  GI50: > 100 µM (inactive)
Hs-578T
  GI50: > 100 µM (inactive)

## CN1CCC2(c3ccccc3)CC(=O)/C(=C/c3ccc(Cl)c(Cl)c3)C1C2.[O-][Cl+3]([O-])([O-])O (stereo not given)
BT-549
  GI50: 2.72 µM (inactive)
Hs-578T
  GI50: 4.47 µM (inactive)

## Cc1cc(C)c(N[S+]([O-])c2cccc(Cl)c2)c(C)c1 (stereo not given)
BT-549
  GI50: > 100 µM (inactive)

## COC(=O)/C(C#N)=C1\NN=NN1CCCN1CCOCC1
M19-MEL
  GI50: > 100 µM (inactive)
LXFL 529
  GI50: > 100 µM (inactive)
HOP-18
  GI50: > 100 µM (inactive)
DMS-273
  GI50: > 100 µM (inactive)
